Results published in patent US20250051347A1, “BIFUNCTIONAL CHIMERIC HETEROCYCLIC COMPOUND AND USE THEREOF AS ANDROGEN RECEPTOR DEGRADER” (Hinova Pharmaceuticals, Inc., priority 2021, published 2025).
Like-named read-outs stand apart in the source and are kept apart here.

Legend:
[1] = Pharmacokinetics in mice (plasma exposure after oral administration); format: in vivo; conditions: ICR mice, oral (i.g.) 3 mg/kg; for AUC(0-inf): mouse, read-out: After oral administration of 3 mg/kg, mouse plasma exposure AUCinf
[2] = molecular target: T1, androgen receptor (AR) splicing variant AR-v7 (Homo sapiens, UniProt P10275); experiment: Degradation activity on androgen receptor splicing variant AR-v7 in 22RV1 cells (ELISA); format: cell-based; conditions: AR-v7 degradation in 22RV1 cells, 48 h, class symbols
T1 construct: The degradation activity of compounds on AR-v7 in 22RV1 cells; host or cells: 22RV1 cells
T1 sequence (P10275 1-644 isoform P10275-3): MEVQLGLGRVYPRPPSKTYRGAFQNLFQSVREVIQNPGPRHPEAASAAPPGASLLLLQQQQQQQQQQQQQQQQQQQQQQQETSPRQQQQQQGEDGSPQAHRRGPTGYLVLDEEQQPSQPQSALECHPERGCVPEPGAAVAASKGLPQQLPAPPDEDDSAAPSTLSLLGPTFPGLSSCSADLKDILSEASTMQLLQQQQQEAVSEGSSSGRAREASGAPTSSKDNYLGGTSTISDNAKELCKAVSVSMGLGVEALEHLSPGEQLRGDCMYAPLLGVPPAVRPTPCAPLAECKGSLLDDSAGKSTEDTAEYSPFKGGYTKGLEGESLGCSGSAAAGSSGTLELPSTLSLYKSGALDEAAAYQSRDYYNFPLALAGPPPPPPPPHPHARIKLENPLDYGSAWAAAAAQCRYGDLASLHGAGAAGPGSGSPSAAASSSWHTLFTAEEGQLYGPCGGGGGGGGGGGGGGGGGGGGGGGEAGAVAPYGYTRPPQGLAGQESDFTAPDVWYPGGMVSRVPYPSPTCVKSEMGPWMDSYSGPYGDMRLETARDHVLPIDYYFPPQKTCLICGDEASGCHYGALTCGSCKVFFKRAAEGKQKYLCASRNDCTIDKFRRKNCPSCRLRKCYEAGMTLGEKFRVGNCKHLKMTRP

[3] = Homo sapiens, 22Rv1, 144 h, read-out: 22RV1 IC50 (nM), 22RV1 cells, 6 days culture, CCK-8, OD 450 nm

Row | Compound | AUC(0-inf) [1] | DC50 [2] | IC50 (22RV1 cells; [3]) | After oral administration of 3 mg/kg, mouse plasma exposure AUCinf (μg*h/mL) [1] | IC50 (22RV1 cells; read-out: 22RV1 IC50, 22RV1 cells, 6 days culture, CCK-8, OD 450 nm)
1 | CC(C)(c1ccc(OCc2cnc(N3CC4(COC4)C3)nc2)cc1)c1ccc(O[C@H]2C[C@@H](Nc3ccc4c(c3)C(=O)N(C3CCC(=O)NC3=O)C4=O)C2)cc1 (stereo partly drawn) [Example 193] | 1000 to 5000 ng·h/mL | 11 to 100 nM | 36 nM |  | 
2 | CC(C)(c1ccc(O[C@H]2C[C@H](Nc3ccc4c(c3)C(=O)N(C3CCC(=O)NC3=O)C4=O)C2)cc1)c1ccc(N2CCc3nc(N4CC5(COC5)C4)ncc3C2)cc1 (stereo partly drawn) [Example 195] | 1000 to 5000 ng·h/mL | < 10 nM | 15 nM |  | 
3 | CC(C)(c1ccc(OCc2ccnc(N3CC4(CCO4)C3)n2)cc1)c1ccc(O[C@H]2C[C@@H](Nc3ccc4c(c3)C(=O)N(C3CCC(=O)NC3=O)C4=O)C2)cc1 (stereo partly drawn) [Example 196] | 1000 to 5000 ng·h/mL | < 10 nM | 10 nM |  | 
4 | CC(C)(c1ccc(Oc2ccc(-n3nccn3)nc2)cc1)c1ccc(O[C@H]2C[C@H](Nc3ccc4c(c3)C(=O)N(C3CCC(=O)NC3=O)C4=O)C2)cc1 (stereo partly drawn) [Example 206, 5-((1r,3r)-3-(4-(2-(4-((6-(2H-1,2,3-triazol-2-yl)pyridin-3-yl)oxy)phenyl)propan-2-ylphenoxy)cyclobutyl)amino)-2-(2,6-dioxopiperidin-3-yl)isoindolin-1,3-dione] | 5000 to 30000 ng·h/mL | < 10 nM | 10 nM |  | 
5 | Cc1nc(-c2ccc(Oc3ccc(C(C)(C)c4ccc(O[C@H]5C[C@H](Nc6ccc7c(c6)C(=O)N(C6CCC(=O)NC6=O)C7=O)C5)cc4)cc3)cn2)no1 (stereo partly drawn) [Example 209] |  | < 10 nM |  | A (30-5 μg*h/mL) | 5 nM
6 | C=CC(c1ccc(Oc2cnc(-c3noc(C)n3)nc2)cc1)c1ccc(O[C@H]2C[C@H](Nc3ccc4c(c3)C(=O)N(C3CCC(=O)NC3=O)C4=O)C2)cc1 (stereo partly drawn) [Example 210] | 5000 to 30000 ng·h/mL | < 10 nM | 7 nM |  | 
7 | Cc1nc(-c2ncc(Oc3ccc(C4(c5ccc(O[C@H]6C[C@H](Nc7ccc8c(c7)C(=O)N(C7CCC(=O)NC7=O)C8=O)C6)cc5)CC4)cc3)cn2)no1 (stereo partly drawn) [Example 212] | 5000 to 30000 ng·h/mL | < 10 nM | 14 nM |  | 
8 | CC(O)c1ncc(Oc2ccc(C(C)(C)c3ccc(O[C@H]4C[C@H](Nc5ccc6c(c5)C(=O)N(C5CCC(=O)NC5=O)C6=O)C4)cn3)cc2)cn1 (stereo partly drawn) [Example 223] | 1000 to 5000 ng·h/mL | < 10 nM | 0.5 nM |  | 
9 | CC(C)(c1ccc(OCc2ccnc(-n3nccn3)n2)cc1)c1ccc(O[C@H]2C[C@H](Nc3ccc4c(c3)C(=O)N(C3CCC(=O)NC3=O)C4=O)C2)cc1 (stereo partly drawn) [Example 231] | 5000 to 30000 ng·h/mL | 11 to 100 nM | 8.6 nM |  | 
10 | CN1CCC(Nc2nccc(COc3ccc(C(C)(C)c4ccc(O[C@H]5C[C@H](Nc6ccc7c(c6)C(=O)N(C6CCC(=O)NC6=O)C7=O)C5)cc4)cc3)n2)CC1 (stereo partly drawn) [Example 232] | 100 to 1000 ng·h/mL | < 10 nM | 8 nM |  | 
11 | CC(C)(c1ccc(OCc2ccnc(NC3CCN(CCCCO)CC3)n2)cc1)c1ccc(O[C@H]2C[C@H](Nc3ccc4c(c3)C(=O)N(C3CCC(=O)NC3=O)C4=O)C2)cc1 (stereo partly drawn) [Example 239] | 100 to 1000 ng·h/mL | < 10 nM | 3 nM |  | 
12 | CC(C)(c1ccc(Oc2ccnc(N3CC4(COC4)C3)n2)cc1)c1ccc(OC2CC(Nc3ccc4c(c3)C(=O)N(C3CCC(=O)NC3=O)C4=O)C2)cc1 (stereo not drawn) [Example 240, 5-((3-(4-(2-(4-((2-(2-oxa-6-azaspiro[3.3]heptan-6-yl)pyrimidin-4-yl)oxy)phenyl)propan-2-yl)phenoxy)cyclobutyl)amino)-2-(2,6-dioxopiperidin-3-yl)isoindolin-1,3-dione] | 1000 to 5000 ng·h/mL | < 10 nM | 12 nM |  | 
13 | CC(C)(c1ccc(Oc2cnc(N3CC4(COC4)C3)nc2)cc1)c1ccc(O[C@H]2C[C@H](Nc3ccc4c(c3)C(=O)N(C3CCC(=O)NC3=O)C4=O)C2)cc1 (stereo partly drawn) [Example 248] | 1000 to 5000 ng·h/mL | < 10 nM | 23 nM |  | 
14 | Cc1noc(-c2nccc(COc3ccc(C(C)(C)c4ccc(O[C@H]5C[C@@H](Nc6ccc7c(c6)C(=O)N(C6CCC(=O)NC6=O)C7=O)C5)cc4)cc3)n2)n1 (stereo partly drawn) [Example 251] | 1000 to 5000 ng·h/mL | < 10 nM | 6 nM |  | 
15 | Cc1noc(-c2ncc(Oc3ccc(C(C)(C)c4ccc(O[C@H]5C[C@H](Nc6ccc7c(c6)C(=O)N(C6CCC(=O)NC6=O)C7=O)C5)cc4)cc3)cn2)n1 (stereo partly drawn) [Example 254] | 5000 to 30000 ng·h/mL | < 10 nM | 6 nM |  | 
16 | C=CC(c1ccc(Oc2ccc(-c3noc(C)n3)nn2)cc1)c1ccc(O[C@H]2C[C@H](Nc3ccc4c(c3)C(=O)N(C3CCC(=O)NC3=O)C4=O)C2)cc1 (stereo partly drawn) [Example 259] | 5000 to 30000 ng·h/mL | < 10 nM | 7 nM |  | 
17 | CC1(N)CN(c2nccc(COc3ccc(C(C)(C)c4ccc(O[C@H]5C[C@@H](Nc6ccc7c(c6)C(=O)N(C6CCC(=O)NC6=O)C7=O)C5)cc4)cc3)n2)C1 (stereo partly drawn) [Example 268] | 1000 to 5000 ng·h/mL | < 10 nM | 9 nM |  | 
18 | CC1(N)CN(c2nccc(COc3ccc(C(C)(C)c4ccc(O[C@H]5C[C@H](Nc6ccc7c(c6)C(=O)N(C6CCC(=O)NC6=O)C7=O)C5)cc4)cc3)n2)C1 (stereo partly drawn) [Example 275] | 1000 to 5000 ng·h/mL | < 10 nM | 4 nM |  | 
19 | Cc1nc(-c2nccc(COc3ccc(C(C)(C)c4ccc(O[C@H]5C[C@H](Nc6ccc7c(c6)C(=O)N(C6CCC(=O)NC6=O)C7=O)C5)cc4)cc3)n2)no1 (stereo partly drawn) [Example 279] | 5000 to 30000 ng·h/mL | < 10 nM | 4 nM |  | 
20 | CC(C)(c1ccc(OCc2ccnc(N3CC4(COC4)C3)n2)cc1)c1ccc(OC[C@@H]2CCN2c2ccc3c(c2)C(=O)N(C2CCC(=O)NC2=O)C3=O)cc1 (stereo partly drawn) [Example 312, 5-((S)-2-((4-(2-(4-((2-(2-oxa-6-azaspiro[3.3]heptan-6-yl)pyrimidin-4-yl)methoxy)phenyl)propan-2-yl)phenoxy)methyl)azetidin-1-yl)-2-(2,6-dioxopiperidin-3-yl)isoindolin-1,3-dione] | 100 to 1000 ng·h/mL | < 10 nM | 22 nM |  | 
21 | CC(C)(c1ccc(Oc2ncc(-n3nccn3)cn2)cc1)c1ccc(O[C@H]2C[C@H](Nc3ccc4c(c3)C(=O)N(C3CCC(=O)NC3=O)C4=O)C2)cc1 (stereo partly drawn) [Example 321] | 5000 to 30000 ng·h/mL | < 10 nM | 8 nM |  | 
22 | Cc1nnc(-c2ccc(Oc3ccc(C(C)(C)c4ccc(O[C@H]5C[C@H](Nc6ccc7c(c6)C(=O)N(C6CCC(=O)NC6=O)C7=O)C5)cc4)cc3)cn2)o1 (stereo partly drawn) [Example 323] | 5000 to 30000 ng·h/mL | < 10 nM | 11 nM |  | 
23 | CC(C)(c1ccc(Oc2ccc(-n3nccn3)nn2)cc1)c1ccc(O[C@H]2C[C@H](Nc3ccc4c(c3)C(=O)N(C3CCC(=O)NC3=O)C4=O)C2)cc1 (stereo partly drawn) [Example 324] | 5000 to 30000 ng·h/mL | < 10 nM | 4 nM |  | 
24 | Cc1nc(-c2ccc(Oc3ccc(C(C)(C)c4ccc(O[C@H]5C[C@H](Nc6ccc7c(c6)C(=O)N(C6CCC(=O)NC6=O)C7=O)C5)cc4)cc3)nn2)no1 (stereo partly drawn) [Example 328] | 5000 to 30000 ng·h/mL | 11 to 100 nM | 5 nM |  | 
25 | Cc1nc(-c2ccc(Oc3ccc(C4(c5ccc(O[C@H]6C[C@H](Nc7ccc8c(c7)C(=O)N(C7CCC(=O)NC7=O)C8=O)C6)cc5)CCCC4)cc3)nn2)no1 (stereo partly drawn) [Example 338] | 1000 to 5000 ng·h/mL | < 10 nM | 2 nM |  | 
